Counter-ions that a name gives are not always drawn.
Target: T1, human α-thrombin (Homo sapiens, UniProt P00734)
T1 construct: Human α-thrombin, human factor Xa and human plasmin were obtained from Enzyme Research Laboratories; purchased Enzyme Research Laboratories (South Bend, Ind.)
Assay: Thrombin inhibition, Ki determination (hydrolysis of N-succinyl-Ala-Ala-Pro-Arg-p-nitroanilide)
Assay type: biochemical
Conditions: Table 1; pH 7.5, 37° C.; read-out: Thrombin Ki
Text: All buffer salts were obtained from Sigma Chemical Company (St. Louis, Mo.), and were of the highest purity available. The enzyme substrates, N-benzoyl-Phe-Val-Arg-p-nitroanilide (Sigma B7632), N-benzoyl-Ile-Glu-Gly-Arg-p-nitroanilide hydrochloride (Sigma B2291), N-p-Tosyl-Gly-Pro-Lys-p-nitroanilide (Sigma T6140), N-succinyl-Ala-Ala-Pro-Phe-p-nitroanilide (Sigma S7388) and N-CBZ-Val-Gly-Arg-p-nitroanilide (Sigma C7271) were obtained from Sigma.
Human α-thrombin, human factor Xa and human plasmin were obtained from Enzyme Research Laboratories (South Bend, Ind.). Bovine α-chymotrypsin (Sigma C4129), bovine trypsin (Sigma T8642) and human kidney cell urokinase (Sigma U5004) were obtained from Sigma. Human leukocyte elastase was obtained from Elastin Products (Pacific, Mo.).
All assays are based on the ability of the test compound to inhibit the enzyme catalyzed hydrolysis of a peptide p-nitroanilide substrate. […] The final concentrations for each of the substrates is listed below. In general, substrate concentrations are lower than the experimentally determined value for Km. Test compounds are prepared as a 1.0 mg/ml solution in DMSO. Dilutions are prepared in DMSO yielding 8 final concentrations encompassing a 200 fold concentration range. Enzyme solutions are prepared at the concentrations listed below in assay buffer.
Data corresponding to less than 10% of the total substrate hydrolysis were used in the calculations. The ratio of the velocity (rate of change in absorbance as a function of time) for a sample containing no test compound is divided by the velocity of a sample containing test compound, and is plotted as a function of test compound concentration. The data are fit to a linear regression, and the value of the slope of the line calculated. The inverse of the slope is the experimentally determined Ki value.
Thrombin activity was assessed as the ability to hydrolyze the substrate N-succinyl-Ala-Ala-Pro-Arg-p-nitroanilide.

Going from `Cc1cc(OCCC=NNC(=N)N)cc(OS(=O)(=O)c2ccccc2C(F)(F)F)c1` [Example 2, 2-[2-[5-Methyl-3-(2-trifluoromethylphenylsulfonyloxy)phenoxy]ethyl-1-methylene]hydrazinecarboximidamide nitrate] to `Cc1cc(OCCC=NNC(=N)N)cc(OS(=O)(=O)c2ccccc2OC(F)(F)F)c1` [Example 10, 2-[2-[5-Methyl-3-(2-trifluoromethoxyphenylsulfonyloxy)phenoxy]ethyl-1-methylene]hydrazinecarboximidamide nitrate], the Ki rises from 8.4 nM to 17.2 nM (2-fold). The first binds more tightly here.

Compared with `Cc1cc(OCCC=NNC(=N)N)cc(OCc2ccccc2C(F)(F)F)c1` [Example 3, 2-[2-[5-methyl-3-(2-trifluoromethylbenzyloxy)phenoxy]ethyl-1-methylene]hydrazinecarboximidamide nitrate], `Cc1cc(OCCC=NNC(=N)N)cc(OS(=O)(=O)c2cc(C(F)(F)F)ccc2Cl)c1` [Example 26, 2-[2-[3-(2-Chloro-5-trifluoromethylphenylsulfonyloxy)-5-methylphenoxy]ethyl-1-methylene]hydrazinecarboximidamide nitrate] is 3.3-fold higher in Ki: 465 nM for the first, 1540 nM for the second.

`COc1cc(CCCC=NNC(=N)N)cc(OS(=O)(=O)c2ccccc2Cl)c1` [Example 4, 2-[3-[3-(2-chlorophenylsulfonyloxy)-5-methoxyphenyl]propyl-1-methylene]hydrazinecarboximidamide hydrochloride] and `COc1ccccc1S(=O)(=O)Oc1cc(C)cc(OCCCC=NNC(=N)N)c1` [Example 23, 2-[3-[3-(2-Methoxyphenylsulfonyloxy)-5-methylphenoxy]propyl-1-methylene]hydrazinecarboximidamide nitrate] are within 1.5-fold of each other in Ki: 1270 nM for the first, 1670 nM for the second.

First: CCOC(=O)CCCCCN(c1cc(C)cc(OCCC=NNC(=N)N)c1)S(=O)(=O)c1ccccc1C(F)(F)F [Example 5, 2-[2-[(5-methyl-3-(N-(5-ethoxycarbonylpentyl)-N-(2-trifluoromethylphenylsulfonyl)amino)phenoxy]ethyl-1-methylene]hydrazinecarboximidamide nitrate]
Second: Cc1cc(OCCC=NNC(=N)N)cc(N(CCCCc2ccccc2)S(=O)(=O)c2ccccc2C(F)(F)F)c1 [Example 31, 2-[2-[(3-Methyl-5-(N-(4-phenylbutyl)-N-(2-trifluoromethylphenylsulfonyl))amino)phenoxy]ethyl-1-methylene]hydrazinecarboximidamide acetate]
The Ki of the first is 2.6-fold lower: 26.4 nM for the first, 69.2 nM for the second. The first binds more tightly here.

`Cc1cc(OCCC=NNC(=N)N)cc(OS(=O)(=O)c2cccc(Cl)c2Cl)c1` [Example 6, 2-[2-[3-(2,3-Dichlorophenylsulfonyloxy)-5-methylphenoxy]ethyl-1-methylene]hydrazinecarboximidamide nitrate] and `Cc1cc(OCCC=NNC(=N)N)cc(OS(=O)(=O)c2cc(Cl)ccc2Cl)c1` [Example 7, 2-[2-[3-(2,5-Dichlorophenylsulfonyloxy)-5-methylphenoxy]ethyl-1-methylene]hydrazinecarboximidamide nitrate] are within 1.5-fold of each other in Ki: 13.6 nM for the first, 14.9 nM for the second.

`COc1ccccc1S(=O)(=O)Oc1cc(C)cc(OCCC=NNC(=N)N)c1` [Example 8, 2-[2-[3-(2-Methoxyphenylsulfonyloxy)-5-methylphenoxy]ethyl-1-methylene]hydrazinecarboximidamide acetate] and `COc1ccc(Br)cc1S(=O)(=O)Oc1cc(C)cc(OCCC=NNC(=N)N)c1` [Example 9, 2-[2-[3-(5-Bromo-2-methoxyphenylsulfonyloxy)-5-methylphenoxy]ethyl-1-methylene]hydrazinecarboximidamide nitrate] are within 1.5-fold of each other in Ki: 6.4 nM for the first, 9.4 nM for the second.

`Cc1cc(OCCC=NNC(=N)N)cc(OS(=O)(=O)c2cccc3nsnc23)c1` [Example 11, 2-[2-[3-(Benzo-2,1,3-thiadiazole-4-sulfonyloxy)-5-methylphenoxy]ethyl-1-methylene]hydrazinecarboximidamide nitrate] and `Cc1cc(OCCC=NNC(=N)N)cc(OS(=O)(=O)c2cccc3cnccc23)c1` [Example 32, 2-[2-[3-(5-Isoquinolinylsulfonyloxy)-5-methylphenoxy]ethyl-1-methylene]hydrazinecarboximidamide nitrate] are within 1.5-fold of each other in Ki: 29.6 nM for the first, 24.9 nM for the second.

Going from `Cc1cc(OCCC=NNC(=N)N)cc(OS(=O)(=O)c2cccc(C)c2)c1` [Example 12, 2-[2-[5-Methyl-3-(3-methylphenylsulfonyloxy)phenoxy]ethyl-1-methylene]hydrazinecarboximidamide nitrate] to `Cc1cc(OCCC=NNC(=N)N)cc(OS(=O)(=O)c2cccc(Cl)c2)c1` [Example 21, 2-[2-[3-(3-Chlorophenylsulfonyloxy)-5-methylphenoxy]ethyl-1-methylene]hydrazinecarboximidamide nitrate], the Ki falls from 8.9 nM to 3.6 nM (2.5-fold). The second binds more tightly here.

First: Cc1cc(OCCC=NNC(=N)N)cc(OS(=O)(=O)c2ccccc2C#N)c1 [Example 13, 2-[2-[3-(2-Cyanophenylsulfonyloxy)-5-methylphenoxy]ethyl-1-methylene]hydrazinecarboximidamide hydrochloride]
Second: Cc1cc(OCCC=NNC(=N)N)cc(OS(=O)(=O)c2cc(C)ccc2C#N)c1 [Example 30, 2-[2-[3-(2-Cyano-5-methylphenylsulfonyloxy)-5-methylphenoxy]ethyl-1-methylene]hydrazinecarboximidamide nitrate]
The Ki of the first is 2.4-fold lower: 14 nM for the first, 33.4 nM for the second. The first binds more tightly here.

Going from `COc1ccc(C)cc1S(=O)(=O)Oc1cc(C)cc(OCCC=NNC(=N)N)c1` [Example 14, 2-[2-[3-(2-Methoxy-5-methylphenylsulfonyloxy)-5-methylphenoxy]ethyl-1-methylene]hydrazinecarboximidamide nitrate] to `COc1ccc(Cl)cc1S(=O)(=O)Oc1cc(C)cc(OCCC=NNC(=N)N)c1` [Example 18, 2-[2-[3-(5-Chloro-2-methoxyphenylsulfonyloxy)-5-methylphenoxy]ethyl-1-methylene]hydrazinecarboximidamide hydrochloride], the Ki falls from 47.5 nM to 4.7 nM (10-fold).

Compared with `COc1ccc(OC)c(S(=O)(=O)Oc2cc(C)cc(OCCC=NNC(=N)N)c2)c1` [Example 16, 2-[2-[3-(2,5-Dimethoxyphenylsulfonyloxy)-5-methylphenoxy]ethyl-1-methylene]hydrazinecarboximidamide nitrate], `COc1ccc(Cl)cc1S(=O)(=O)Oc1cc(C)cc(OCCC=NNC(=N)NN)c1` [Example 27, 2-Amino-[2-[2-[3-(5-chloro-2-methoxyphenylsulfonyloxy)-5-methylphenoxy]ethyl-1-methylene]hydrazine]carboximidamine acetate] is 14-fold higher in Ki: 21.3 nM for the first, 298 nM for the second. The first binds more tightly here.

Going from `Cc1cc(OCCC=NNC(=N)N)cc(OS(=O)(=O)c2cc(C)ccc2C)c1` [Example 17, 2-[2-[3-(2,5-Dimethylphenylsulfonyloxy)-5-methylphenoxy]ethyl-1-methylene]hydrazinecarboximidamide nitrate] to `Cc1cc(OCCC=NNC(=N)N)cc(OS(=O)(=O)c2cc(F)ccc2C)c1` [Example 24, 2-[2-[3-(5-Fluoro-2-methylphenylsulfonyloxy)-5-methylphenoxy]ethyl-1-methylene]hydrazinecarboximidamide nitrate], the Ki rises from 6.2 nM to 13.5 nM (2.2-fold). The first binds more tightly here.

`Cc1cc(OCCC=NNC(=N)N)cc(OS(=O)(=O)c2c(C)nn(C)c2Cl)c1` [Example 20, 2-[2-[3-(5-chloro-1,3-dimethylpyrazole-4-sulfonyloxy)-5-methylphenoxy]ethyl-1-methylene]hydrazinecarboximidamide acetate] and `Cc1cc(OCCC=NNC(=N)N)cc(OS(=O)(=O)c2cccnc2)c1` [Example 34, 2-[2-[5-methyl-3-(3-pyridinylsulfonyloxy)phenoxy]ethyl-1-methylene]hydrazinecarboximidamide diacetate] are within 1.5-fold of each other in Ki: 76.2 nM for the first, 56 nM for the second.

Going from `Cc1cc(OCCC=NNC(=N)N)cc(OS(=O)(=O)c2cc([N+](=O)[O-])ccc2C)c1` [Example 22, 2-[2-[5-Methyl-3-(2-methyl-5-nitrophenylsulfonyloxy)phenoxy]ethyl-1-methylene]hydrazinecarboximidamide nitrate] to `Cc1cc(OCCC=NNC(=N)N)cc(OS(=O)(=O)c2cccc(F)c2)c1` [Example 35, 2-[2-[3-(3-Fluorophenylsulfonyloxy)-5-methylphenoxy]ethyl-1-methylene]hydrazinecarboximidamide nitrate], the Ki falls from 63.6 nM to 31 nM (2.1-fold). The second binds more tightly here.

Compared with `Cc1cc(OCCC=NNC(=N)N)cc(OS(=O)(=O)c2cccc3ccccc23)c1` [Example 25, 2-[2-[5-Methyl-3-(1-naphthalenylsulfonyloxy)phenoxy]ethyl-1-methylene]hydrazinecarboximidamide nitrate], `COc1ccc(Cl)cc1S(=O)(=O)Oc1cc(C)cc(OCCC=NN(N)C(=N)N)c1` [Example 28, 1-Amino-2-[2-[3-(5-chloro-2-methoxyphenylsulfonyloxy)-5-methylphenoxy]ethyl-1-methylene]hydrazinecarboximidamine acetate] is 2.9-fold higher in Ki: 63.2 nM for the first, 186 nM for the second. The first binds more tightly here.

Reference: patent US5891909A, “Amidinohydrazones as protease inhibitors” (3-Dimensional Pharmaceuticals, Inc., priority 1997, dated 1999)
